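Cells were grown in 96-well plates and exposed to each compound for 48 hours at five concentrations; endpoints were interpolated linearly between bracketing concentrations, or set to the highest concentration if not reached. Abbreviation: GI50, concentration required for 50% inhibition of growth. Definition used: TGI = concentration required for complete inhibition of growth.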
How the values were obtained:
Test in all cases: growth of human tumour cells (NCI), 48 h
[1] = test system: HCT-116 colon
[2] = test system: NCI/ADR-RES ovarian
[3] = test system: NCI-H522 lung
[4] = test system: SK-OV-3 ovarian
[5] = test system: COLO 205 colon
[6] = test system: SF-268 CNS
[7] = test system: LOX IMVI melanoma
[8] = test system: HOP-92 NSCLC
[9] = test system: HOP-62 NSCLC
[10] = test system: SW-620 colon
[11] = test system: MDA-MB-231 breast
[12] = test system: MOLT-4 leukemia
[13] = test system: SF-539 CNS
[14] = test system: SF-295 CNS
[15] = test system: SNB-19 CNS
[16] = test system: PC-3 prostate
[17] = test system: CAKI-1 renal
[18] = test system: DU-145 prostate
[19] = test system: HCC-2998 colon
[20] = test system: K-562 leukemia
[21] = test system: HL-60(TB) leukemia
[22] = test system: CCRF-CEM leukemia
[23] = test system: OVCAR-4 ovarian
[24] = test system: KM12 colon
[25] = test system: MALME-3M melanoma
[26] = test system: TK-10 renal
[27] = test system: OVCAR-3 ovarian
[28] = test system: UO-31 renal
[29] = test system: SK-MEL-28 melanoma
[30] = test system: 786-0 renal
[31] = test system: NCI-H23 lung
[32] = test system: SNB-75 CNS
[33] = test system: ACHN renal
[34] = test system: SK-MEL-2 melanoma
[35] = test system: OVCAR-5 ovarian
[36] = test system: BT-549 breast
[37] = test system: SN12C renal
[38] = test system: MCF7 breast
[39] = test system: RXF 393 renal
[40] = test system: OVCAR-8 ovarian
[41] = test system: A549 NSCLC
[42] = test system: IGROV1 ovarian
[43] = test system: HCT-15 colon
[44] = test system: UACC-62 melanoma
[45] = test system: HT29 colon
[46] = test system: T-47D breast
[47] = test system: RPMI-8226 leukemia
[48] = test system: NCI-H226 lung
[49] = test system: MDA-MB-435
[50] = test system: U251 CNS
[51] = test system: UACC-257 melanoma
[52] = test system: NCI-H460 lung
[53] = test system: SK-MEL-5 melanoma
[54] = test system: HS 578T breast
[55] = test system: EKVX NSCLC
[56] = test system: M14 melanoma
[57] = test system: SR leukemia

O=C1c2ccccc2-c2nnc(-c3ccc(Br)cc3)cc21
GI50 [1]: > 100 µM | TGI [1]: > 100 µM | GI50 [2]: > 100 µM | TGI [2]: > 100 µM | GI50 [3]: > 100 µM | TGI [3]: > 100 µM | GI50 [4]: > 100 µM | TGI [4]: > 100 µM | GI50 [5]: > 100 µM | TGI [5]: > 100 µM | GI50 [6]: > 100 µM | TGI [6]: > 100 µM | GI50 [7]: > 100 µM | TGI [7]: > 100 µM | GI50 [8]: > 100 µM | TGI [8]: > 100 µM | GI50 [9]: > 100 µM | TGI [9]: > 100 µM | GI50 [10]: > 100 µM | TGI [10]: > 100 µM | GI50 [11]: > 100 µM | TGI [11]: > 100 µM | GI50 [12]: > 100 µM | TGI [12]: > 100 µM | GI50 [13]: > 100 µM | TGI [13]: > 100 µM | GI50 [14]: > 100 µM | TGI [14]: > 100 µM | GI50 [15]: > 100 µM | TGI [15]: > 100 µM | GI50 [16]: > 100 µM | TGI [16]: > 100 µM | GI50 [17]: > 100 µM | TGI [17]: > 100 µM | GI50 [18]: > 100 µM | TGI [18]: > 100 µM | GI50 [19]: > 100 µM | TGI [19]: > 100 µM | GI50 [20]: > 100 µM | TGI [20]: > 100 µM | GI50 [21]: > 100 µM | TGI [21]: > 100 µM | GI50 [22]: > 100 µM | TGI [22]: > 100 µM | GI50 [23]: > 100 µM | TGI [23]: > 100 µM | GI50 [24]: > 100 µM | TGI [24]: > 100 µM | GI50 [25]: > 100 µM | TGI [25]: > 100 µM | GI50 [26]: > 100 µM | TGI [26]: > 100 µM | GI50 [27]: > 100 µM | TGI [27]: > 100 µM | GI50 [28]: > 100 µM | TGI [28]: > 100 µM | GI50 [29]: > 100 µM | TGI [29]: > 100 µM | GI50 [30]: > 100 µM | TGI [30]: > 100 µM | GI50 [31]: > 100 µM | TGI [31]: > 100 µM | GI50 [32]: > 100 µM | TGI [32]: > 100 µM | GI50 [33]: > 100 µM | TGI [33]: > 100 µM | GI50 [34]: > 100 µM | TGI [34]: > 100 µM | GI50 [35]: > 100 µM | TGI [35]: > 100 µM | GI50 [36]: > 100 µM | TGI [36]: > 100 µM | GI50 [37]: > 100 µM | TGI [37]: > 100 µM | GI50 [38]: > 100 µM | TGI [38]: > 100 µM | GI50 [39]: > 100 µM | TGI [39]: > 100 µM | GI50 [40]: > 100 µM | TGI [40]: > 100 µM | GI50 [41]: > 100 µM | TGI [41]: > 100 µM | GI50 [42]: > 100 µM | TGI [42]: > 100 µM | GI50 [43]: > 100 µM | TGI [43]: > 100 µM | GI50 [44]: > 100 µM | TGI [44]: > 100 µM | GI50 [45]: > 100 µM | TGI [45]: > 100 µM | GI50 [46]: 48.8 µM | TGI [46]: > 100 µM | GI50 [47]: > 100 µM | TGI [47]: > 100 µM | GI50 [48]: > 100 µM | TGI [48]: > 100 µM | GI50 [49]: > 100 µM | TGI [49]: > 100 µM | GI50 [50]: > 100 µM | TGI [50]: > 100 µM | GI50 [51]: > 100 µM | TGI [51]: > 100 µM | GI50 [52]: > 100 µM | TGI [52]: > 100 µM | GI50 [53]: > 100 µM | TGI [53]: > 100 µM | GI50 [54]: > 100 µM | TGI [54]: > 100 µM

CCOC(=O)[C@H]1O[C@@H]1C(=O)N[C@@H](CC(C)C)C(=O)NCCc1ccc(O)cc1
GI50 [1]: > 100 µM | TGI [1]: > 100 µM | GI50 [2]: > 100 µM | TGI [2]: > 100 µM | GI50 [3]: > 100 µM | TGI [3]: > 100 µM | GI50 [4]: > 100 µM | TGI [4]: > 100 µM | GI50 [5]: > 100 µM | TGI [5]: > 100 µM | GI50 [6]: > 100 µM | TGI [6]: > 100 µM | GI50 [7]: > 100 µM | TGI [7]: > 100 µM | GI50 [8]: > 100 µM | TGI [8]: > 100 µM | GI50 [9]: > 100 µM | TGI [9]: > 100 µM | GI50 [10]: > 100 µM | TGI [10]: > 100 µM | GI50 [12]: > 100 µM | TGI [12]: > 100 µM | GI50 [13]: > 100 µM | TGI [13]: > 100 µM | GI50 [14]: > 100 µM | TGI [14]: > 100 µM | GI50 [15]: > 100 µM | TGI [15]: > 100 µM | GI50 [16]: > 100 µM | TGI [16]: > 100 µM | GI50 [17]: > 100 µM | TGI [17]: > 100 µM | GI50 [18]: > 100 µM | TGI [18]: > 100 µM | GI50 [20]: 48.4 µM | TGI [20]: > 100 µM | GI50 [21]: > 100 µM | TGI [21]: > 100 µM | GI50 [23]: > 100 µM | TGI [23]: > 100 µM | GI50 [24]: > 100 µM | TGI [24]: > 100 µM | GI50 [26]: > 100 µM | TGI [26]: > 100 µM | GI50 [27]: > 100 µM | TGI [27]: > 100 µM | GI50 [28]: > 100 µM | TGI [28]: > 100 µM | GI50 [55]: > 100 µM | TGI [55]: > 100 µM | GI50 [29]: > 100 µM | TGI [29]: > 100 µM | GI50 [30]: > 100 µM | TGI [30]: > 100 µM | GI50 [31]: > 100 µM | TGI [31]: > 100 µM | GI50 [32]: > 100 µM | TGI [32]: > 100 µM | GI50 [33]: > 100 µM | TGI [33]: > 100 µM | GI50 [56]: > 100 µM | TGI [56]: > 100 µM | GI50 [34]: > 100 µM | TGI [34]: > 100 µM | GI50 [35]: > 100 µM | TGI [35]: > 100 µM | GI50 [36]: > 100 µM | TGI [36]: > 100 µM | GI50 [37]: > 100 µM | TGI [37]: > 100 µM | GI50 [38]: > 100 µM | TGI [38]: > 100 µM | GI50 [39]: > 100 µM | TGI [39]: > 100 µM | GI50 [40]: > 100 µM | TGI [40]: > 100 µM | GI50 [41]: > 100 µM | TGI [41]: > 100 µM | GI50 [42]: > 100 µM | TGI [42]: > 100 µM | GI50 [43]: > 100 µM | TGI [43]: > 100 µM | GI50 [44]: > 100 µM | TGI [44]: > 100 µM | GI50 [45]: > 100 µM | TGI [45]: > 100 µM | GI50 [57]: 41 µM | TGI [57]: > 100 µM | GI50 [46]: > 100 µM | TGI [46]: > 100 µM | GI50 [47]: > 100 µM | TGI [47]: > 100 µM | GI50 [48]: > 100 µM | TGI [48]: > 100 µM | GI50 [49]: > 100 µM | TGI [49]: > 100 µM | GI50 [50]: > 100 µM | TGI [50]: > 100 µM | GI50 [51]: > 100 µM | TGI [51]: > 100 µM | GI50 [52]: > 100 µM | TGI [52]: > 100 µM | GI50 [53]: > 100 µM | TGI [53]: > 100 µM | GI50 [54]: > 100 µM | TGI [54]: > 100 µM
